Assay results reported in publication PMC9927415, “Tyrosine Kinase Inhibitors Display Potent Activity against Cryptosporidium parvum” (Microbiology Spectrum, 2022).

Key:
Assay in all cases: KINOMEscan competitive binding, whole panel
panel of 203 kinases [1] = molecular target: T1, panel of 203 kinases (Homo sapiens, UniProt P29322); settings: 10 µM, n=1; kinase EPHA8; read-out: Percent inhibition EPHA8
T1 construct: purchased DiscoverX (KINOMEscan)
T1 sequence (P29322 28-1005): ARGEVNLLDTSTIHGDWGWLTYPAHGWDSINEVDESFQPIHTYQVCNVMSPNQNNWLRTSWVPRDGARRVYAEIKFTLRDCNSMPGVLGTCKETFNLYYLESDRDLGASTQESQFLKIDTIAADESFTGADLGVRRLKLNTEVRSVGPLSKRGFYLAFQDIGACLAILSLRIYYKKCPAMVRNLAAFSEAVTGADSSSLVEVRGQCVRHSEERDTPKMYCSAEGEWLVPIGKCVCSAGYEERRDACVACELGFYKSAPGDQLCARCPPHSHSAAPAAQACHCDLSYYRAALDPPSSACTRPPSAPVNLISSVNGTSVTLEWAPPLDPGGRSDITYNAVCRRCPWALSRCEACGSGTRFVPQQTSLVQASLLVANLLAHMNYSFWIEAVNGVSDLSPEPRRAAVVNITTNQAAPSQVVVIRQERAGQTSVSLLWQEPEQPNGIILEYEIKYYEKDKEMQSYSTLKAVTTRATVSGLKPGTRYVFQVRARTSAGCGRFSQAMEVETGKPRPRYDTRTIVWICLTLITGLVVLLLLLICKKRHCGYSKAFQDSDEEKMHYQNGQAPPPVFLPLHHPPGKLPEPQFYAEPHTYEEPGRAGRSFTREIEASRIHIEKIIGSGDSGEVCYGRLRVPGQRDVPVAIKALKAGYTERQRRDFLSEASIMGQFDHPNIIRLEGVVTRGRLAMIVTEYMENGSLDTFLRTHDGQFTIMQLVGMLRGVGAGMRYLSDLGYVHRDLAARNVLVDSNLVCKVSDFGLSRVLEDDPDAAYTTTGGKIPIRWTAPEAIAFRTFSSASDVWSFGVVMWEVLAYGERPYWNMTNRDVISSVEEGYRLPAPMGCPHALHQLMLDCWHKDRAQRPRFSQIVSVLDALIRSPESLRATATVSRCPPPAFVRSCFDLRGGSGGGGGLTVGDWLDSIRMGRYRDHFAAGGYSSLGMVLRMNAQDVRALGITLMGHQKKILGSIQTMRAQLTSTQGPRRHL
Procedure, shortened: (§1)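 T7 phage-fused kinases; compound displaces immobilized ATP-site probe ligand; bead-bound kinase quantified; % inhibition reported.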

panel of 203 kinases [2] = molecular target: T2, panel of 203 kinases (Homo sapiens, UniProt Q08881); settings: 10 µM, n=1; kinase ITK; read-out: Percent inhibition ITK
T2 construct: purchased DiscoverX (KINOMEscan)
T2 sequence (Q08881 1-620): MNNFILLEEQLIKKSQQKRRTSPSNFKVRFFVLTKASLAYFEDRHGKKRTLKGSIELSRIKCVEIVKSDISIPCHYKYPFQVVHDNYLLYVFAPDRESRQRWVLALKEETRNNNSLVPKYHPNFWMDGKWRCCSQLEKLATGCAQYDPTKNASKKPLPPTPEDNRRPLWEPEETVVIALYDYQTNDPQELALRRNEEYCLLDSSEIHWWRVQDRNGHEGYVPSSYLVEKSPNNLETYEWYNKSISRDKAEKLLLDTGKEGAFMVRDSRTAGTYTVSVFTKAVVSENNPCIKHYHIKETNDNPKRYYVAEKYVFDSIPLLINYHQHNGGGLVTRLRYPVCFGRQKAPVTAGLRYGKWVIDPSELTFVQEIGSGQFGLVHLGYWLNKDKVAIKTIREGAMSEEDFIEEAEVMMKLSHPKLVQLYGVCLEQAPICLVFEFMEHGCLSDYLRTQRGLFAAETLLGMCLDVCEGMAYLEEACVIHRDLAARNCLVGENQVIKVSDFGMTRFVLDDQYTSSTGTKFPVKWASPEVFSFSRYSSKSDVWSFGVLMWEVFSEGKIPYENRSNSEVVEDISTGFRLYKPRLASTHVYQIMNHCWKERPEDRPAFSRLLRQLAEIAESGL
Procedure, shortened: as §1

panel of 203 kinases [3] = molecular target: T3, panel of 203 kinases (Homo sapiens, UniProt Q8TD19); settings: 10 µM, n=1; kinase NEK9; read-out: Percent inhibition NEK9
T3 construct: purchased DiscoverX (KINOMEscan)
T3 sequence (Q8TD19 1-979): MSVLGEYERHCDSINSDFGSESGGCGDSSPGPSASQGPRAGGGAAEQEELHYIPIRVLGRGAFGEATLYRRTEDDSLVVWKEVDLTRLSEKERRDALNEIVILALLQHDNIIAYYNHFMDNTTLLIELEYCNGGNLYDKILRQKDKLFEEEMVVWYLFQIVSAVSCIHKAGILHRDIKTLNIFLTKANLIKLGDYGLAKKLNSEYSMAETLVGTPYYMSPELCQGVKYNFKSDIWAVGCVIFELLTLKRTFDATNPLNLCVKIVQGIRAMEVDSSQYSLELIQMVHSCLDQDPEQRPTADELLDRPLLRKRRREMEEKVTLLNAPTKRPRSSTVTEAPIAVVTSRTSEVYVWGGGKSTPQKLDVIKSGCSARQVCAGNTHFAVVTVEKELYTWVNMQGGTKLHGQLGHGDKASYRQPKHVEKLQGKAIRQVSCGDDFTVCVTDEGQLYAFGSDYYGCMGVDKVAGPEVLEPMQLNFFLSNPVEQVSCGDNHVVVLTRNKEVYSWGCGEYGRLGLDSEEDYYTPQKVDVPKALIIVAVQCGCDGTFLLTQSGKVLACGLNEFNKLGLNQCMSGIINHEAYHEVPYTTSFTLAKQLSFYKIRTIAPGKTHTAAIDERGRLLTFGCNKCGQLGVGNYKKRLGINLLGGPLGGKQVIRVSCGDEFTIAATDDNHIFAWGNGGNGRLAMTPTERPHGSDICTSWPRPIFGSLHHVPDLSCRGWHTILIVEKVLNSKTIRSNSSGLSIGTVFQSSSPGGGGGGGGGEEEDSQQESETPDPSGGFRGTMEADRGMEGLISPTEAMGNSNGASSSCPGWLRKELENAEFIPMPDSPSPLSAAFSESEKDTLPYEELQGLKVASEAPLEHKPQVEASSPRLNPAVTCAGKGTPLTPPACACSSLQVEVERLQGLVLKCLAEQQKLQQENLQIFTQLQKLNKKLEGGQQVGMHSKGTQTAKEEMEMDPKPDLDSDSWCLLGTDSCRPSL
Procedure, shortened: as §1

SMILES | inhibition at 10 µM (panel of 203 kinases [1]) [%] | inhibition at 10 µM (panel of 203 kinases [2]) [%] | inhibition at 10 µM (panel of 203 kinases [3]) [%]
CN1CCN(c2ccc(Nc3nccc(-c4cnn5ncccc45)n3)cc2C#N)CC1 [Compound 1] | 0 | 79 | 99.2
COc1ccc(Nc2nccc(-c3cnn4ncccc34)n2)cc1 [Compound 2] | 0 | 0 | 100
Cc1ccc(O)cc1Nc1ccnc(Nc2cccc(C(N)=O)c2)n1 [Compound 3] | 100 | 0 | 0
Cc1ccc(O)cc1N(C)c1ccnc(Nc2cccc(S(N)(=O)=O)c2)n1 [Compound 4] | 100 | 0 | 0
Fc1cccc(COc2ccc(Nc3ncnc4c3CN(CCN3CCOCC3)CC4)cc2Cl)c1 [Compound 6] | 0 | 0 | 0
COc1cc(Nc2nccc(-c3sc(N)nc3-c3cccc(NC(=O)c4c(F)cccc4F)c3)n2)cc(OC)c1OC [Compound 7] | 100 | 0 | 88.9
C[C@@H](Oc1cc(-c2cnc3ccccn23)sc1C(N)=O)c1ccccc1Cl [Compound 8] | 0 | 0 | 94.7
c1ccc(COc2cccc(-c3ccnc4[nH]ccc34)c2)cc1 [Compound 9] | 0 | 0 | 0
Clc1ccc(Nc2ncc(-c3ccccc3)s2)cc1 [Compound 10] | 0 | 0 | 0
Nc1ncc2c(-c3ccncc3)c[nH]c2n1 [Compound 11] | 0 | 73.2 | 0
